Consider 80 compounds from the METLIN SMRT retention time set (Domingo-Almenara et al. 2019).

This data set in a line: gradient 5% acetonitrile 3 min, to 50% in 2 min, to 85% in 15 min, held 3 min, 100 µL/min. The conditions noted are these: column: Zorbax Extend-C18 2.1 x 50 mm; eluents: water / acetonitrile, 0.1% formic acid. In a few lines: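 Values are retention times taken from adduct peaks that software picked and an analyst inspected. The pure standards were run as mixtures of ~100 molecules on HPLC linked to a quadrupole time-of-flight mass spectrometer, in positive and negative ionization mode. A Zorbax Extend-C18 column (2.1 × 50 mm, 1.8 μm) was used at 100 μL/min with water and acetonitrile, each including 0.1% formic acid.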
The compound `Cc1ccc(-n2cc3c(N4CCCC(C(=O)NCCC5=CCCCC5)C4)ncnc3n2)cc1` (stereo not given) showed an RP-LC retention time of 792 s.

The compound `Cc1nc2cc(-c3noc(-c4ccc(F)cc4)n3)ccc2n(C)c1=O` registered an RP-LC retention time of 1030 s.

As for `COc1ccc(C(=O)N(C2CCCC2)C2(C(=O)NCc3ccccc3)CCN(C(C)=O)CC2)cc1`, the RP-LC retention time is 885 s.

Consider `CCc1noc(NC(C)=O)c1-c1ccc(OC)c(S(=O)(=O)NCc2ccccc2C)c1`, for which the RP-LC retention time was 884 s.

For `CC1CCC[C@H](O)CCCCCc2cc(O)cc(O)c2C(=O)O1` (stereo not given in full), the RP-LC retention time was 862 s.

Compound `OC(CN1CCN(c2ccccc2Cl)CC1)c1ccc2c(c1)OCO2` (stereo not given) returned an RP-LC retention time of 670 s.

In the case of `Cc1cc(NC(=O)N(C)Cc2nc3cc(C(=O)N(C)C)ccc3n2C)ccc1Br`, the RP-LC retention time was found to be 662 s.

`CCn1cc(-c2nc(C)c(C(=O)Nc3ccc(C(=O)OC)cc3)s2)c2cccnc21` showed an RP-LC retention time of 1020 s.

`O=C(COc1coc(CN2CCc3ccccc32)cc1=O)NCc1ccc2c(c1)OCO2`: the RP-LC retention time is 781 s.

Regarding `Clc1ccc(Cl)c(-c2ccc(CNCCN3CCNCC3)o2)c1`, the RP-LC retention time was found to be 603 s.

As to `CCCCC(=O)N(CCC)CCC`, the RP-LC retention time was 965 s.

`COC(=O)c1c(C)c(C(=O)C(C)N(C(=O)c2ccccc2Cl)C(C)C)c(C)n1C` (stereo not given) showed an RP-LC retention time of 975 s.

`O=C(CN1C(=O)COc2ccc(Cl)cc21)NCC(=O)N1CCCc2ccccc21` showed an RP-LC retention time of 862 s.

Turning to `CCn1c(-c2ccccc2)nc2ccccc21`, the RP-LC retention time came to 623 s.

`N#Cc1cccc(NC(=O)Cn2cccc(-c3nc(-c4ccccc4)no3)c2=O)c1` returned an RP-LC retention time of 828 s.

Compound `O=C(Cn1nc2c3cc(-c4ccccc4)nn3ccn2c1=O)Nc1ccc(Br)cc1F` returned an RP-LC retention time of 923 s.

With `Cc1[nH]c(C(=O)N2CCCC(C(=O)NCCN3CCCCCC3)C2)c(C)c1C(=O)OC(C)C` (stereo not given), the RP-LC retention time came to 654 s.

Regarding `Clc1ccc(Nc2nc(-c3ccncc3)nc3ccccc23)cc1`, the RP-LC retention time was 848 s.

For `C[C@@H]1C(=O)O[C@H]2C[C@@]34C5C[C@@H](C(C)(C)C)[C@]36[C@H](OC(=O)[C@@H]6O)OC4(C(=O)O5)[C@]21O` (stereo not given in full), the RP-LC retention time was 709 s.

The compound `COc1ccc(-c2nnc3n2CCN(Cc2cccc(C#N)c2)C3)cc1` gave an RP-LC retention time of 667 s.

On to `Cc1ccc(C)c(-c2cc3c(=O)n(Cc4noc(-c5ccccn5)n4)ccn3n2)c1`, for which the RP-LC retention time was 923 s.

`CCC(=O)N1CCN(Cc2nc3cc(NC(=O)CC(C)C)ccc3n2C)CC1` registered an RP-LC retention time of 603 s.

For the compound `Cc1nc(-c2ccccn2)cc2nn(CC(=O)NCCC(C)C)c(=O)n12`, the RP-LC retention time is 713 s.

As to `Cc1cc(N2CCN(S(=O)(=O)c3ccc(F)c(F)c3)CC2)nc(N2CCCC2)n1`, the RP-LC retention time stood at 720 s.

`Nc1ncc2c(n1)CC(c1ccco1)CC2=O` (stereo not given) had an RP-LC retention time of 676 s.

As for `CCc1cccc(NC(=O)Cn2ncc3c(N4CCN(c5ccccn5)CC4)ncnc32)c1`, the RP-LC retention time is 655 s.

`Clc1ccccc1-n1ncc2c(NCc3ccco3)ncnc21` displayed an RP-LC retention time of 719 s.

`CCCNS(=O)(=O)c1c(C)sc(C)c1-c1cc(C(F)(F)F)on1` returned an RP-LC retention time of 1130 s.

Turning to `CCNC(=O)C1CCc2sc(C(=O)N(CC)CC)cc2C1` (stereo not given), the RP-LC retention time stood at 660 s.

The compound `COCCn1cc2c3c(cccc31)CN(C(=O)Nc1cc(F)ccc1F)CC2` yielded an RP-LC retention time of 938 s.

On to `COc1ccc(Cl)cc1NC(=O)C1(c2cccs2)CCCC1`, for which the RP-LC retention time is 1280 s.

`C=CCNC(=O)N1CCCN(C2=NS(=O)(=O)C(c3ccc(Cl)cc3)=C2C)CC1` displayed an RP-LC retention time of 761 s.

Take `CCN1C(=O)c2cccnc2Sc2cc(NC(=O)Cc3ccccc3C)ccc21`: the RP-LC retention time worked out at 898 s.

The compound `Cc1noc(C2CN(C(=O)c3ccc4ncsc4c3)C2)n1` gave an RP-LC retention time of 593 s.

Regarding `COc1cc(NC(=O)Nc2nccn(-c3ccccc3)c2=O)cc(OC)c1`, the RP-LC retention time was determined as 886 s.

The compound `COc1ccccc1C(=O)Nc1cccn2nc(C3CCC3)nc12` displayed an RP-LC retention time of 1140 s.

`C=CCN1C(=O)COc2ccc(-c3csc(NC(=O)c4cccc(C)c4)n3)cc21`: the RP-LC retention time was 1060 s.

On to `COCc1nc(-c2ccc(OC3CCN(Cc4ccc(C(F)(F)F)cc4)C3)cc2)no1` (stereo not given), for which the RP-LC retention time is 751 s.

Turning to `COc1cc(NC(=O)CCc2c(C)nn(-c3cc(N(C)C)ncn3)c2C)cc(OC)c1`, the RP-LC retention time worked out at 792 s.

Consider `COc1cccc(S(=O)(=O)N2C[C@@H]3C[C@H](NC(=O)c4cccs4)[C@H]2C3)c1`, for which the RP-LC retention time was found to be 854 s.

In turn, `O=c1c2scc(-c3ccc(Br)cc3)c2ncn1Cc1cccnc1` yielded an RP-LC retention time of 775 s.

For `COc1cccc(C(=O)NC(NC(=O)c2cccc(OC)c2)c2ccc3c(c2)OCO3)c1`, the RP-LC retention time worked out at 758 s.

Compound `CN1CC(=O)N(CC(=O)N2CCN(c3ccc(Cl)cc3)CC2)c2ccccc2C1=O` yielded an RP-LC retention time of 746 s.

`N#CC1=CN(c2cccc(C(F)(F)F)c2)c2ccccc2S1(=O)=O` registered an RP-LC retention time of 930 s.

Consider `Cc1ccc(NC(=O)Cn2nc3nc(N4CCOCC4)ccn3c2=O)cc1F`, for which the RP-LC retention time came to 675 s.

As to `CCCNC(=O)C1CCN(c2ccc(SCC(=O)Nc3ccc(Cl)cc3)nn2)CC1`, the RP-LC retention time came out at 655 s.

As to `COc1ccc(N2CCN(c3ncc(C(=O)O)c(C)n3)CC2)cc1`, the RP-LC retention time is 713 s.

In the case of `O=C1CCCCC(CNC(=O)c2ccsc2)N1` (stereo not given), the RP-LC retention time turned out to be 619 s.

With `Cc1cc(C)c2c(N3CCCCC3)nc(C(=O)N3CCC(C)CC3)nc2n1`, the RP-LC retention time was found to be 698 s.

In the case of `COCCCNC(=O)c1c(C)sc2ccn(Cc3ccc(F)cc3)c(=O)c12`, the RP-LC retention time was 746 s.

`CN(Cc1nc2ccccc2n1Cc1ccc(F)cc1)C(=O)c1ccco1` gave an RP-LC retention time of 714 s.

In turn, `CCc1noc(NC(C)=O)c1-c1ccc(OC)c(S(=O)(=O)NCc2ccc(C)cc2)c1` showed an RP-LC retention time of 802 s.

The compound `COCCNC(=O)C1c2ccccc2CC(=O)N1Cc1ccccc1` (stereo not given) came in with an RP-LC retention time of 711 s.

For `Cc1ccc(C)c(N2C(=O)CN(S(C)(=O)=O)CC2(C)C(=O)NCc2ccc(F)cc2)c1` (stereo not given), the RP-LC retention time was 840 s.

For `Cc1nn(-c2ccccc2)c(C)c1S(=O)(=O)N1CCC(C(=O)N2CCN(C)CC2)CC1`, the RP-LC retention time came out at 631 s.

With `O=C(NCCc1cccs1)c1ccc2nc(Cc3ccccc3)oc2c1`, the RP-LC retention time is 949 s.

`Cc1ccc(-c2nnc(Cc3nc(-c4cccc(C(F)(F)F)c4)no3)o2)cc1` returned an RP-LC retention time of 1160 s.

In turn, `CN1CC[C@H](c2c(O)cc(O)c3c(=O)cc(-c4ccccc4Cl)oc23)[C@H](O)C1` came in with an RP-LC retention time of 689 s.

Compound `CCOc1ccc(C(C)NC(=O)C2CCCN(c3cnc4nccnc4c3)C2)cc1` (stereo not given) registered an RP-LC retention time of 712 s.

In the case of `CCc1nnc2ccc(-c3noc(-c4c(F)cccc4F)n3)cn12`, the RP-LC retention time turned out to be 845 s.

As for `CCn1cnc(S(=O)(=O)N2CCCC(C(=O)NCCN3CCCCCC3)C2)c1` (stereo not given), the RP-LC retention time came out at 583 s.

For `COc1cc(C(=O)N2CCN(c3cc(C)c4ccccc4n3)CC2)cc(OC)c1OC`, the RP-LC retention time turned out to be 635 s.

`O=S(=O)(Cc1ccccc1Cl)N(Cc1ccsc1)C1CC1` had an RP-LC retention time of 1000 s.

As to `O=C1NCCCCCN(C(=O)c2cccs2)[C@H]2CCC[C@@H]12`, the RP-LC retention time is 698 s.

Take `O=S(=O)(NCc1ccc(F)cc1)c1ccccc1-c1nc(-c2ccc(F)cc2)no1`: the RP-LC retention time stood at 1180 s.

Compound `Cc1ccc(NC(=O)CSc2cc(N3CCC(C)CC3)ncn2)c(C)c1` registered an RP-LC retention time of 1100 s.

For the compound `COc1ccccc1CNS(=O)(=O)c1cc2n(c1)CCN(C(C)C)C2=O`, the RP-LC retention time is 784 s.

On to `CCOC(=O)c1c(C)[nH]c(C(=O)N2CCC(C(C)C(=O)N3CCOCC3)CC2)c1C` (stereo not given), for which the RP-LC retention time stood at 681 s.

`COC(=O)CNC(=O)Cc1c(C)nn(-c2nc(-c3ccc(C)cc3)cs2)c1C` had an RP-LC retention time of 963 s.

As to `CC(C)Cc1nc(C2CN(C(=O)CC3CCCC3)CC23CCCC3)no1` (stereo not given), the RP-LC retention time came to 1210 s.

The compound `CCCN1C(=O)COc2ccc(-c3noc(-c4cccc(Br)c4)n3)cc21` yielded an RP-LC retention time of 1400 s.

In turn, `CCOc1ccccc1NC(=O)N1CC(N(CC)C2CCOCC2)C1` displayed an RP-LC retention time of 561 s.

The compound `Cn1cc(S(=O)(=O)N2CCC(C(=O)Nc3ccc4c(c3)OCO4)CC2)cc1C(=O)N1CCCC1` came in with an RP-LC retention time of 716 s.

`Cn1nc(-c2nc(Cc3ccccc3)no2)c2c1CCN(C(=O)C1CCOC1)C2` (stereo not given) gave an RP-LC retention time of 777 s.

Regarding `Cn1c(=O)c2cc(C(=O)Nc3ccc(F)cc3)cnc2n(-c2ccccc2)c1=O`, the RP-LC retention time turned out to be 868 s.

Take `CCOC(=O)CNC(=O)NCCn1c(C(F)(F)F)nc2ccccc21`: the RP-LC retention time is 686 s.

The compound `CC(NC(=O)Cc1cccn1-c1ccc(Cl)cc1)c1ccccn1` (stereo not given) showed an RP-LC retention time of 790 s.

`CNC(=O)c1ccc(-n2nc(Sc3ccc(OC)cc3)ccc2=O)cc1` yielded an RP-LC retention time of 702 s.

In turn, `CCc1ccc(N2CC(c3noc(-c4ccccc4F)n3)CC2=O)cc1` (stereo not given) returned an RP-LC retention time of 1100 s.

`Cc1ccc2c(c1)N(S(C)(=O)=O)CC(C)O2` (stereo not given): the RP-LC retention time worked out at 620 s.
